Experimental data reported in patent US7713994B2 (Wyeth LLC, priority 2005, dated 2010).

What follows are molecules tested against T1, cyclin D1/cdk 4 enzyme (Homo sapiens, UniProt P11802) (assay: CDK4 ELISA kinase assay (phospho-Rb ser 795 detection)). Settings: In Vitro Enzyme Assay, cyclin D1/cdk 4, read-out: CDK4 IC50.
T1 construct: made in house; host or cells: Sf9 insect cells, recombinant baculovirus
T1 sequence (P11802 whole entry, species assumed): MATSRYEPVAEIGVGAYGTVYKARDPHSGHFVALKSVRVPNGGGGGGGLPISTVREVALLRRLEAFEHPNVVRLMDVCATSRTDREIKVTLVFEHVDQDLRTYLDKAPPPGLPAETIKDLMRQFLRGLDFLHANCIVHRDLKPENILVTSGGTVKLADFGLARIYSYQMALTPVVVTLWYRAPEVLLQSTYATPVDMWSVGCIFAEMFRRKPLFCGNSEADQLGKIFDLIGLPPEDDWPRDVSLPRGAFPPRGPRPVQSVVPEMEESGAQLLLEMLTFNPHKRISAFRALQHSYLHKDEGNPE
T1 sequence (P24385 whole entry partner, species assumed): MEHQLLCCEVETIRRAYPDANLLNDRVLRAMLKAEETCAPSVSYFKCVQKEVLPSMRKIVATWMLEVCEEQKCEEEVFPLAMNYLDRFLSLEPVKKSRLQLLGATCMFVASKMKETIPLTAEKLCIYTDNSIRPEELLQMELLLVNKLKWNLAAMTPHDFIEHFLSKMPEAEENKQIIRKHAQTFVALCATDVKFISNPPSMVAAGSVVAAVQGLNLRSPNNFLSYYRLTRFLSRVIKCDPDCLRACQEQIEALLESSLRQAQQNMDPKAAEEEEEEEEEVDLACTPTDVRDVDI
Format: biochemical
Procedure, shortened: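 Wells were coated overnight with GST-Rb C-terminal fragment, then blocked. Compound (10 ug/ml final) and cyclin/CDK enzyme from baculovirus-infected Sf9 cells with 200 μM ATP reacted 1 h at 30° C. Ser795 phosphorylation was detected by ELISA at 450 nm.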
Work on `CC(C)c1cccc(-c2ccc3c(c2)C(=CNCc2ccc(O)c(O)c2)C(=O)NC3=O)c1` [Example 791, 4-[(3,4-Dihydroxy-benzylamino)-methylene]-6-(3-isopropyl-phenyl)-4H-isoquinoline-1,3-dione] yielded an IC50 of 4.99 µM. `CC(C)S(=O)(=O)Nc1cccc(CNC=C2C(=O)NC(=O)c3ccccc32)c1` [Example 580, Propane-2-sulfonic acid (3-{[(1,3-dioxo-2,3-dihydro-1H-isoquinolin-4-ylidenemethyl)-amino]-methyl}-phenyl)-amide] was tested, and the IC50 was 48.7 µM. Molecule `CN1CCN(c2ccc(NC=C3C(=O)NC(=O)c4ccc(-c5ccc(CCC(=O)O)cc5)cc43)cc2)CC1` [Example 809, 3-[4-(4-{[4-(4-Methyl-piperazin-1-yl)-phenylamino]-methylene}-1,3-dioxo-1,2,3,4-tetrahydro-isoquinolin-6-yl)-phenyl]-propionic acid] has an IC50 of 13.8 µM. For `COc1ccc(CNC=C2C(=O)NC(=O)c3ccc(C=Cn4ccnc4)cc32)cc1O` [Example 733, 4-[(3-Hydroxy-4-methoxy-benzylamino)-methylene]-6-(2-imidazol-1-yl-vinyl)-4H-isoquinoline-1,3-dione], the IC50 was 0.01 µM. `O=C1NC(=O)c2ccccc2C1=CNNc1cccc(C(=O)O)c1` [Example 552, 3-[N′-(1,3-Dioxo-2,3-dihydro-1H-isoquinolin-4-ylidenemethyl)-hydrazino]-benzoic acid] gave an IC50 of 32.2 µM. `CS(=O)(=O)NCc1ccc(NC=C2C(=O)NC(=O)c3ccccc32)cc1` [Example 612, N-{4-[(1,3-Dioxo-2,3-dihydro-1H-isoquinolin-4-ylidenemethyl)-amino]-benzyl}-methanesulfonamide] was tested, and the IC50 was 48.9 µM. `CN1CCN(c2ccc(NC=C3C(=O)NC(=O)c4ccc(-c5cccc(C#N)c5)cc43)cc2)CC1` [Example 695, 3-(4-{[4-(4-Methyl-piperazin-1-yl)-phenylamino]-methylene}-1,3-dioxo-1,2,3,4-tetrahydro-isoquinolin-6-yl)-benzonitrile] showed an IC50 of 14.3 µM. In the case of `O=C1NC(=O)c2ccccc2C1=CNc1ccc(O)cc1O` [Example 568, 4-[(2,4-Dihydroxy-phenylamino)-methylene]-4H-isoquinoline-1,3-dione], the IC50 is reported as 16.9 µM. `Nc1cccc(CNC=C2C(=O)NC(=O)c3ccccc32)c1` [Example 573, 4-[(3-Amino-benzylamino)-methylene]-4H-isoquinoline-1,3-dione] gave an IC50 of 30.6 µM. Molecule `O=C1NC(=O)c2ccccc2C1=CNc1ccc(N2CCN(CCN3CCOCC3)CC2)cc1` [Example 571, 4-({4-[4-(2-Morpholin-4-yl-ethyl)-piperazin-1-yl]-phenylamino}-methylene)-4H-isoquinoline-1,3-dione] has an IC50 of 33.8 µM. With `CN1CCN(c2ccc(NC=C3C(=O)NC(=O)c4ccc(C=Cc5ccc(C(=O)O)cc5)cc43)cc2)CC1` [Example 727, 4-[2-(4-{[4-(4-Methyl-piperazin-1-yl)-phenylamino]-methylene}-1,3-dioxo-1,2,3,4-tetrahydro-isoquinolin-6-yl)-vinyl]-benzoic acid] the IC50 was 20.4 µM. For `CN1CCN(c2ccc(NC=C3C(=O)NC(=O)c4ccc(-c5ccc(C(F)(F)F)cc5)cc43)cc2)CC1` [Example 687, 4-{[4-(4-Methyl-piperazin-1-yl)-phenylamino]-methylene}-6-(4-trifluoromethyl-phenyl)-4H-isoquinoline-1,3-dione], the IC50 was 20.9 µM. Molecule `O=C1NC(=O)c2ccccc2C1=CNCc1cccc(NC(=O)C2CC2)c1` [Example 586, Cyclopropanecarboxylic acid (3-{[(1,3-dioxo-2,3-dihydro-1H-isoquinolin-4-ylidenemethyl)-amino]-methyl}-phenyl)-amide] has an IC50 of 31.3 µM. `NS(=O)(=O)c1ccc(CNC=C2C(=O)NC(=O)c3ccc(-c4ccccc4C(F)(F)F)cc32)cc1` [Example 745, 4-({[1,3-Dioxo-6-(2-trifluoromethyl-phenyl)-2,3-dihydro-1H-isoquinolin-4-ylidenemethyl]-amino}-methyl)-benzenesulfonamide] gave an IC50 of 19.9 µM. Molecule `Cc1ccccc1-c1ccc2c(c1)C(=CNCc1ccc(S(N)(=O)=O)cc1)C(=O)NC2=O` [Example 754, 4-{[(1,3-Dioxo-6-o-tolyl-2,3-dihydro-1H-isoquinolin-4-ylidenemethyl)-amino]-methyl}-benzenesulfonamide] has an IC50 of 11 µM. Work on `CC(=O)c1ccc(-c2ccc3c(c2)C(=CNc2ccc(CC#N)cc2)C(=O)NC3=O)cc1` [Example 710, (4-{[6-(4-Acetyl-phenyl)-1,3-dioxo-2,3-dihydro-1H-isoquinolin-4-ylidenemethyl]-amino}-phenyl)-acetonitrile] yielded an IC50 of 28 µM. `CN1CCN(c2ccc(NC=C3C(=O)NC(=O)c4ccc(C=CCCC(=O)O)cc43)cc2)CC1` [Example 795, 5-(4-{[4-(4-Methyl-piperazin-1-yl)-phenylamino]-methylene}-1,3-dioxo-1,2,3,4-tetrahydro-isoquinolin-6-yl)-pent-4-enoic acid] gave an IC50 of 24.2 µM. With `N#CCc1ccc(NC=C2C(=O)NC(=O)c3ccc(-c4cccc(-c5ccccc5)c4)cc32)cc1` [Example 721, {4-[(6-Biphenyl-3-yl-1,3-dioxo-2,3-dihydro-1H-isoquinolin-4-ylidenemethyl)-amino]-phenyl}-acetonitrile] the IC50 was 25.9 µM. In the case of `O=C1NC(=O)c2ccccc2C1=CNc1ccccc1OC(F)(F)F` [Example 541, 4-[(2-Trifluoromethoxy-phenylamino)-methylene]-4H-isoquinoline-1,3-dione], the IC50 is reported as 37.1 µM. In the case of `Cc1ncsc1C=Cc1ccc2c(c1)C(=CNc1ccc(N3CCN(C)CC3)cc1)C(=O)NC2=O` [Example 681, 4-{[4-(4-Methyl-piperazin-1-yl)-phenylamino]-methylene}-6-[2-(4-methyl-thiazol-5-yl)-vinyl]-4H-isoquinoline-1,3-dione], the IC50 is reported as 17.7 µM. With `NS(=O)(=O)c1ccc(CNC=C2C(=O)NC(=O)c3ccc(-c4ccc(C(F)(F)F)cc4)cc32)cc1` [Example 743, 4-({[1,3-Dioxo-6-(4-trifluoromethyl-phenyl)-2,3-dihydro-1H-isoquinolin-4-ylidenemethyl]-amino}-methyl)-benzenesulfonamide] the IC50 was 11.3 µM. `CCN(CC)CCOC=Cc1ccc2c(c1)C(=CNc1ccc(N3CCN(C)CC3)cc1)C(=O)NC2=O` [Example 794, 6-[2-(2-Diethylamino-ethoxy)-vinyl]-4-{[4-(4-methyl-piperazin-1-yl)-phenylamino]-methylene}-4H-isoquinoline-1,3-dione] gave an IC50 of 41.7 µM. `CN1CCN(c2ccc(NC=C3C(=O)NC(=O)c4ccc(-c5ccc(-c6ccccc6)cc5)cc43)cc2)CC1` [Example 696, 6-Biphenyl-4-yl-4-{[4-(4-methyl-piperazin-1-yl)-phenylamino]-methylene}-4H-isoquinoline-1,3-dione] gave an IC50 of 27.3 µM. For `O=C1NC(=O)c2ccc(-c3cccc(-c4ccccc4)c3)cc2C1=CNCc1ccc(O)c(O)c1` [Example 787, 6-Biphenyl-3-yl-4-[(3,4-dihydroxy-benzylamino)-methylene]-4H-isoquinoline-1,3-dione], the IC50 was 2.27 µM. For `O=C(O)CCCc1ccc(NC=C2C(=O)NC(=O)c3ccccc32)cc1` [Example 558, 4-{4-[(1,3-Dioxo-2,3-dihydro-1H-isoquinolin-4-ylidenemethyl)-amino]-phenyl}-butyric acid], the IC50 was 27.4 µM. In the case of `Cc1ccccc1-c1ccc2c(c1)C(=CNc1ccc(N3CCN(C)CC3)cc1)C(=O)NC2=O` [Example 694, 4-{[4-(4-Methyl-piperazin-1-yl)-phenylamino]-methylene}-6-o-tolyl-4H-isoquinoline-1,3-dione], the IC50 is reported as 32.3 µM.
